Patent US11344607B2, “Treatment of disease with relaxin” (BV Biomed Ltd, priority 2015, dated 2022)
Where “and” joins values, the source holds several entries; their conditions need not be identical. Equal values may be shown once. Entries after “also recorded” stand apart in the source; their conditions may differ. No end group written: not given here.

How the values were obtained:
EAE mouse model = assay: EAE disease severity, daily clinical score; type: in vivo, mice
Experimental: Female C57BL/6 mice were obtained and housed at Biomedical Research Models (Worcester, Mass.)
(§1) At 7-8 weeks of age, mice were immunized with […] emulsion (Hooke Laboratories #EK-2110 provided pre-formulated). Mice received pertussis toxin (Hooke Laboratory, Cat #EK-2110 provided lyophilized) reconstituted in phosphate buffered saline (PBS) at the time of immunization (day 0; 75 ng) and on day 2 (200 ng). Animals were scored daily for disease severity: 0=normal, 1=tail paralysis, 2=tail paralysis and strong hind limb weakness, 3=complete hind limb paralysis, 4=hind limb and forelimb paralysis, 5=found dead.
(§2) At the onset of EAE (the first day with a score of 1 or greater), subcutaneous alzet pumps (DURECT Corporation, Cupertino, Calif.) were inserted and the animals were randomly assigned to receive either porcine relaxin (SKY BioHealth, Inc., Eden Prairie, Minn., […]) or placebo treatment (1 μ/Hr PBS), either recombinant porcine relaxin (pRLN, n=8) or placebo (PBS, n=8) at a rate of 0.110/hr. Relaxin (SKY BioHealth, Inc., Eden Prairie, Minn/) was administered at a concentration of 0.25 mg/ml for the remainder of the study. This delivered a standard dose of 0.66 μg/day of pRLN, which is equivalent to the identified effective dose of 30 μg/KG body weight/day (Hasse et al, 2014). Statistical analysis was done using the t-test and P values <0.05 were considered to be statistically significant.

myelin = assay: Kiernan's eriochrome cyanin stain of spinal cord for myelin; type: in vivo; details: EAE mice, vs untreated (loss of myelin)
Experimental: (§3) For alternative histology, spinal cords were formalin fixed and paraffin embedded (FFPE) as described by Canene-Adams [Canene-Adams, 2013]. Briefly, Spinal cords were rinsed in PBS to remove blood and fixed in 10% formalin for 48 hours at room temperature. Tissues were then transferred to 70% ethanol (ETOH) for 1 hour, 95% ETOH (95% ETOH/5% methanol) for 1 hour, then incubated in four absolute ETOH baths first for 1 hour, then 2 for 1½ hours, followed by a fourth for 2 hours. Tissues were then cleared with two xylene baths for 1 hour each. Tissues were then incubated in two paraffin baths at 58° C. for 1 hour each. Tissues were then removed and placed in cassettes.
(§4) The FFPE tissues were sectioned into […] slices on a microtome. Slices were transferred to glass slides and warmed to 65° C. for 20 minutes to bond the tissue to the glass.
(§5) Sections were stained with Kiernan's eriochrome cyanin for myelin [Kiernan J A, 1999], cluster of differentiation 68 (CD68) for macrophages [Holness and Simmons, 1993], neurofilaments [Alberts, B. 2002] and glial fibrillary acidic protein (GFAP) [Jacque C M, et al, 1978].
Kiernan's stain for myelin was done as described. First tissues were placed in a solution containing eriochrome cyanine R, ferric chloride and sulphuric acid in water for 20 minutes. Rinsed briefly under tap water and differentiated with aqueous ferric chloride (5.6%). […]

spinal cord lesions = assay: Spinal cord histology, infiltration and demyelination (lesion load); type: in vivo; details: EAE mice, compared to control animals, data not shown
Experimental: (§6) β-actin. Alternatively RT-PCR for the chemokine receptors (CCR); CCR2, CCR5, CCR7, the interleukins (IL-6 and IL-17) were analyzed using quantitect primers (table 2) and SYBR green based RT-PCR kits (Qiagen, Valencia, Calif.). For histology, spinal cords sections were stained using luxol fast blue-periodic acid shiff for semi-quantitative analysis of infiltration and demyelination.

IL-10 = assay: RT-PCR of spinal cord, IL-10 expression; type: in vivo; details: EAE mice, in words (FIG. 3)
Experimental: as §1, §2
(§7) Spinal cords and brains were collected for RT-PCR and histopathology. […]

CCR2 = assay: RT-PCR of spinal cord, CCR2 expression; type: in vivo, mice
Experimental: as §1
(§8) At the onset of EAE (the first day with a score of 1 or greater), subcutaneous alzet pumps (DURECT Corporation, Cupertino, Calif.) were inserted and the animals were randomly assigned to receive either porcine relaxin (SKY BioHealth, Inc., Eden Prairie, Minn., 66.0 μg/day) or placebo treatment (1 μ/Hr PBS), either recombinant porcine relaxin (pRLN, n=8) or placebo (PBS, n=8) at a rate of 0.110/hr. […]
as §6

MIR2 = assay: Spinal cord expression of MIR2; type: in vivo; details: EAE mice, in words (FIG. 3)
Experimental: as §1, §2, §7

neurofilaments = assay: Neurofilament immunohistochemistry of spinal cord; type: in vivo; details: EAE mice, vs untreated; listed as RLN
Experimental: as §3, §4, §5
(§9) Standard immunohistochemistry [Ramos-vara and Miller, 2014] was used to identify the presence of CD68, neurofilaments and GFAP in the FFPE tissues. Essentially the appropriate antibody directed against the antigen of choice was incubated with the tissue and allowed to bind. […]

IL-17 = assay: RT-PCR of spinal cord, IL-17 expression; type: in vivo, mice; details: for change of spinal cord IL-17 expression vs placebo: EAE mice, in words
Experimental: as §1, §2
(§10) Spinal cords and brains were collected for RT-PCR and histopathology. Total RNA was isolated from spinal cord and brain tissue using the RNeasy mini-kit protocol (Qiagen; Valencia, Calif.) and converted to cDNA using oligo(dT), random hexamers, and Superscript RT II (Invitrogen; Grand Island, N.Y.). […]
as §6

CCR7 = assay: RT-PCR of spinal cord, CCR7 expression; type: in vivo, mice
Experimental: as §1, §8, §6

GFAP = GFAP immunohistochemistry of spinal cord (gliosis); type: in vivo; details: EAE mice, untreated stained positive (extensive gliosis)
Experimental: as §3, §4, §5, §9

IL-6 = assay: RT-PCR of spinal cord, IL-6 expression; type: in vivo, mice; details: for change of spinal cord IL-6 expression vs placebo: EAE mice, in words
Experimental: as §1, §2, §10, §6

[1] = system: inflammation and Wallerian degeneration of the spinal cord; assay: H&E staining of spinal cord; type: in vivo; details: EAE mice, vs untreated
Experimental: as §3, §4
Staining with Hematoxylin and eosin (H&E) stain was also carried out according to standard protocols.

CD68 = CD68 immunohistochemistry of spinal cord (macrophages); type: in vivo; details: EAE mice, vs untreated; listed as RLN
Experimental: as §3, §4, §5, §9

CCR5 = assay: RT-PCR of spinal cord, CCR5 expression; type: in vivo, mice
Experimental: as §1, §8, §6

[2] = limited clinical trials (Smith 2006); cited from earlier work

Substance: relaxin: porcine relaxin (SKY BioHealth, Inc.), recombinant porcine relaxin (pRLN), infused by subcutaneous alzet pump (Relaxin B chain QSTNDFIKACGRELVRLWVEICGSVSWGRTAL; Relaxin A chain RMTLSEKCCQVGCIRKDIARLC; ends and bridges not checked; cysteine pairing not given here; UniProt P01348 25-56; P01348 161-182, looked up)
- time to marked improvement in clinical score (EAE mouse model; EAE mice, after commencing continuous infusion (FIG. 1a)): ≤ 3 days
- clinical score at the end of treatment (EAE mouse model; EAE mice, n=8, scale 0-5, subcutaneous alzet pump from EAE onset, score 2.0 at start, placebo 1.5, listed as RLN): 0.5 and > 0.5
- change in clinical score compared to PBS control (EAE mouse model; EAE model animals, FIG. 1a): improvement in clinical score
- myelin in spinal cord sections (myelin): decreases myelination and increases remyelination
- myelin in spinal cord sections (myelin; listed as RLN): normal appearing myelin
- lesion load and size in the spinal cord (spinal cord lesions): reduced lesion load and size
- change of spinal cord IL-10 expression (IL-10): decreased
- change of spinal cord CCR2 expression vs PBS/placebo (CCR2; EAE mice, in words): decreased; also recorded: significant reductions
- spinal cord expression of CCR2 (CCR2; normalized to β-actin, EAE mice n=8, further studies (FIG. 2b), p<0.05 vs placebo): 0.044 relative units
- change of spinal cord MIR2 expression (MIR2): increased
- change of spinal cord MIR2 expression (MIR2; listed as RLX): increased the expression of the MIR2
- loss of neurofilament in the spinal cord (neurofilaments): relatively greater loss of neurofilaments compared to mice receiving RLN therapy; also recorded: greater loss of neurofilament in the spinal cords of untreated mice
- change of spinal cord IL-17 expression vs placebo (IL-17): significantly decreased
- change of spinal cord IL-17 expression vs placebo (IL-17; listed as RLX): decreased
- spinal cord expression of IL-17 (IL-17; normalized to β-actin, EAE mice n=8, further studies (FIG. 4), p<0.05 vs placebo 0.00026): 0.000078 relative units
- change of spinal cord CCR7 expression vs PBS/placebo (CCR7; EAE mice, in words): decreased; also recorded: significant reductions
- spinal cord expression of CCR7 (CCR7; normalized to β-actin, EAE mice n=8, further studies (FIG. 2b), p<0.05 vs placebo 0.014): 0.003 relative units
- GFAP staining of spinal cord / gliosis (GFAP): complete lack of gliosis
- GFAP staining of spinal cord / gliosis (GFAP; listed as RLN): negative for GFAP; also recorded: did not stain positively for GFAP
- change of spinal cord IL-6 expression vs placebo (IL-6): significantly decreased
- change of spinal cord IL-6 expression vs placebo (IL-6; listed as RLX): decreased
- spinal cord expression of IL-6 (IL-6; normalized to β-actin, EAE mice n=8, further studies (FIG. 4), p<0.05 vs placebo 0.0009): 0.0004 relative units
- inflammation and Wallerian degeneration of the spinal cord [1]: decrease in inflammation and Wallerian degeneration
- macrophage infiltration of the spinal cord (CD68) (CD68): greater infiltration of macrophages in the untreated samples than in those treated with RLN; also recorded: decreased macrophage infiltration
- change of spinal cord CCR5 expression vs PBS/placebo (CCR5; EAE mice, in words): decreased; also recorded: significant reductions
- spinal cord expression of CCR5 (CCR5; normalized to β-actin, EAE mice n=8, further studies (FIG. 2b), not significant vs placebo 0.0046): 0.0035 relative units
- severe side effects [2]: no severe side effects
